From patent publication US7897602B2, “Indolinone compounds as kinase inhibitors” (Development Center for Biotechnology, priority 2009, dated 2011)

How the values were obtained:
Format in all cases: biochemical
[1] = biological target: T1, Aurora A kinase (Homo sapiens, UniProt O14965); test: Aurora A kinase assay ([γ-33P]ATP, CHOCKtide substrate); details: for inhibition at 1 µM: 1.0 μM test compound
T1 construct: purchased Upstate
T1 sequence (O14965 1-403): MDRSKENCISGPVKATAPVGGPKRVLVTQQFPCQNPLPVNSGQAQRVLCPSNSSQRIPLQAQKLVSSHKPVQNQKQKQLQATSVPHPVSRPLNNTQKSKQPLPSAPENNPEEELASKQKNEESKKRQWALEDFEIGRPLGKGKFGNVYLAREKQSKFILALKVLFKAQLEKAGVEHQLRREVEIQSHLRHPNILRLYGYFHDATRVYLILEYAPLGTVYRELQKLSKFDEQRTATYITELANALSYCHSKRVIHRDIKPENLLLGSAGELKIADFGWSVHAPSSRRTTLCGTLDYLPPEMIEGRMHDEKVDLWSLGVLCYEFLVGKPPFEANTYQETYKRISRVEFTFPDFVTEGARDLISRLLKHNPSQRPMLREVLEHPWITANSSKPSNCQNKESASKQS
Description: (§1) Inhibition of Aurora Kinase by the compounds disclosed herein was determined by incubating Aurora kinase, substrate, and a test compound together for a period of time followed by quantifying the resultant phosphorylated product. Specifically, in a well of a 96-well round bottom plate, 25 μL of a reaction mixture containing (1) a test compound disclosed herein (diluted from 9 μM to the desired final concentration), [γ-33P]ATP/ATP mix (10 μM), CHOCKtide (1 μg, Genesis Biotech Inc.), and Aurora-A (1 ng, purchased from Upstate); or (2) a test compound disclosed herein (diluted from 9 μM to the desired final concentration), [γ-33P]ATP/ATP mix (40 μM), CHOCKtide (1 μg, Genesis Biotech Inc.), and Aurora-B (2.5 ng, purchased from Cell signaling); was prepared and incubated at 33° C. for 30 minutes. The reaction was then stopped by adding 5 μL of 3% phosphoric acid. The resultant solution (30 μL) was later harvested by a UniFilter Plate GF/B (PerkinElmer) followed by adding 30 μL of the scintillation cocktail (MicroScint 20, PerkinElmer) to the well. The radioactivity retained on the filter membrane was measured by a luminescence counter (PerkinElmer). IC50 value is defined as the concentration of the test compound which achieves a half-maximal inhibition of the kinase activity.

[2] = biological target: T2, Aurora B kinase (Homo sapiens, UniProt Q96GD4); test: Aurora B kinase assay ([γ-33P]ATP, CHOCKtide substrate); details: for inhibition at 1 µM: 1.0 μM test compound
T2 construct: purchased Cell signaling
Description: as §1

[3] = biological target: T3, c-Met kinase (Homo sapiens, UniProt P08581); test: c-Met kinase assay (33P incorporation into Poly(Glu-Tyr)); details: 500 nM test compound
T3 construct: recombinant N-terminal 6×His-tagged c-Met kinase domain construct expressed from baculovirus; 6xHis (N); made in house
Description: Inhibition of c-Met kinase activity by compounds disclosed herein was quantified by measuring the amount of [^33P] incorporated into the substrate in the presence of a test compound. Briefly, a reaction mixture of 25 μL final volume containing 5 ng of c-Met kinase (obtained by purifying recombinant N-terminal 6×His-tagged c-Met kinase domain construct expressed from baculovirus), 1 μg of the substrate (Poly (Glu-Tyr, 4:1, Sigma)), kinase reaction buffer (20 mM MOPS pH 7.0, 1 mM EDTA, 5% glycerol, 0.01% Brij-35, 0.1% β-mercaptoethanol, 1 mg/mL BSA, 100 μM ATP, 0.1 μCi per well [^33P]-γ-ATP (2,500-3,000 Ci/mmol)), and a test compound (500 nM, diluted with 4% DMSO) or DMSO (as the control) was incubated at 30° C. for 30 minutes. The reaction was stopped by adding 5 μL of 3% phosphoric acid solution. The resultant reaction solution was then harvested onto a filter plate (UniFilter-96 GF/B, PerkinElmer), washed 20 times for 5 min with d.d. H2O, and followed by the addition of 30 μL of MicroScint™-20 Cocktail (PerkinElmer). The plate was then sealed and counted using a TopCount scintillation detector (PerkinElmer). The percentage of inhibition rate of the test compound was calculated by dividing the retained radioactivity of the test sample with the retained radioactivity of the control sample and shown in Table 3.

T2 sequence (Q96GD4 whole entry): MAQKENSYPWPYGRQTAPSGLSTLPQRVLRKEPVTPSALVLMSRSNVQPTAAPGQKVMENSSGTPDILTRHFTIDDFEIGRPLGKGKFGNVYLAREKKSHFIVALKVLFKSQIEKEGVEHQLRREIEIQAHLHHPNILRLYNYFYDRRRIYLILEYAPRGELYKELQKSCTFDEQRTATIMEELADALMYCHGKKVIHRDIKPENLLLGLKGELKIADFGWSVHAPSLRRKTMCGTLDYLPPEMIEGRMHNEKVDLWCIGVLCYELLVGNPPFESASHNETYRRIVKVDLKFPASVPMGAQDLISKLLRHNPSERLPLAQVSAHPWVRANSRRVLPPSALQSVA
T3 sequence (P08581 1078-1345 limits assumed): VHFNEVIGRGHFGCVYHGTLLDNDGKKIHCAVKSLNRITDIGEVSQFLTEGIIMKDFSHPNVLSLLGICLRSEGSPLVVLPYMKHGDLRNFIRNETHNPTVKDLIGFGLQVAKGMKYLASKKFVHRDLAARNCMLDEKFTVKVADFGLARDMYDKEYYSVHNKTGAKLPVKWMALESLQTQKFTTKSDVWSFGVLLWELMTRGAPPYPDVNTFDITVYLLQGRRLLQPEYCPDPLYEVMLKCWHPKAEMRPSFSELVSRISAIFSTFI

Row | IC50 [1] [nM] | inhibition at 1 µM [1] [%] | IC50 [2] [nM] | inhibition at 1 µM [2] [%] | inhibition at 0.5 µM [3] [%] | SMILES
1 | 100 | 74.6 | – | 45.5 | 75.3 | CCOC(=O)CCc1c(/C=C2\C(=O)Nc3ccc(S(=O)(=O)N4CCc5ccccc54)cc32)[nH]c2c1C(=O)CCC2 [DCB-70210, (Z)-ethyl 3-(2-((5-(indolin-1-ylsulfonyl)-2-oxoindolin-3-ylidene)methyl)-4-oxo-4,5,6,7-tetrahydro-1H-indol-3-yl)propanoate]
2 | – | 3.5 | – | 6.3 | 95.2 | CCN(CC)CCNC(=O)CCc1c(/C=C2\C(=O)Nc3ccc(S(=O)(=O)Cc4c(Cl)cccc4Cl)cc32)[nH]c(C)c1C(C)=O [DCB-70212, (Z)-3-(4-acetyl-2-((5-(2,6-dichlorobenzylsulfonyl)-2-oxoindolin-3-ylidene)methyl)-5-methyl-1H-pyrrol-3-yl)-N-(2-(diethylamino)ethyl)propanamide]
3 | – | 1 | – | 16.4 | 15.5 | CCN(CC)CCNC(=O)CCc1c(/C=C2\C(=O)Nc3ccc(F)cc32)[nH]c(C)c1C(C)=O [DCB-70213, (Z)-3-(4-acetyl-2-((5-fluoro-2-oxoindolin-3-ylidene)methyl)-5-methyl-1H-pyrrol-3-yl)-N-(2-(diethylamino)ethyl)propanamide]
4 | – | 15.4 | – | 14.8 | 56.3 | CCN(CC)CCNC(=O)CCc1c(/C=C2\C(=O)Nc3ccc(S(=O)(=O)N4CCc5ccccc54)cc32)[nH]c(C)c1C(C)=O [DCB-70214, (Z)-3-(4-acetyl-2-((5-(indolin-1-ylsulfonyl)-2-oxoindolin-3-ylidene)methyl)-5-methyl-1H-pyrrol-3-yl)-N-(2-(diethylamino)ethyl)propanamide]
5 | 823 | 62 | – | 54.2 | 9.2 | CN1CCN(C(=O)CCc2c(/C=C3\C(=O)Nc4ccc(NS(=O)(=O)c5ccccc5)cc43)[nH]c3c2C(=O)CCC3)CC1 [DCB-70218, (Z)-N-(3-((3-(3-(4-methylpiperazin-1-yl)-3-oxopropyl)-4-oxo-4,5,6,7-tetrahydro-1H-indol-2-yl)methylene)-2-oxoindolin-5-yl)benzenesulfonamide]
6 | – | 25.7 | – | 14.8 | 17.7 | CC(=O)c1c(C)[nH]c(/C=C2\C(=O)Nc3ccc(NS(=O)(=O)c4ccccc4)cc32)c1CCC(=O)N1CCN(C)CC1 [DCB-70219, (Z)-N-(3-((4-acetyl-5-methyl-3-(3-(4-methylpiperazin-1-yl)-3-oxopropyl)-1H-pyrrol-2-yl)methylene)-2-oxoindolin-5-yl)benzenesulfonamide]
7 | – | 95.7 | – | 83.2 | 95.6 | CCN(CC)CCCc1c(/C=C2\C(=O)Nc3ccc(S(=O)(=O)Cc4c(Cl)cccc4Cl)cc32)[nH]c2c1C(=O)CCC2 [DCB-70222, (Z)-5-(2,6-dichlorobenzylsulfonyl)-3-((3-(3-(diethylamino)propyl)-4-oxo-4,5,6,7-tetrahydro-1H-indol-2-yl)methylene)indolin-2-one]

Continued, compound first:

Row | SMILES | IC50 [1] [nM] | inhibition at 1 µM [1] [%] | IC50 [2] [nM] | inhibition at 1 µM [2] [%] | inhibition at 0.5 µM [3] [%]
8 | COc1cccc(S(=O)(=O)Nc2ccc3c(c2)/C(=C/c2[nH]c4c(c2CCC(=O)O)C(=O)CCC4)C(=O)N3)c1 [DCB-70196, (Z)-3-(2-((5-(3-methoxyphenylsulfonamido)-2-oxoindolin-3-ylidene)methyl)-4-oxo-4,5,6,7-tetrahydro-1H-indol-3-yl)propanoic acid] | 61.4 | 91.8 | 673 | 55.8 | 13.8
9 | CCOC(=O)CCc1c(/C=C2\C(=O)Nc3ccc(NS(=O)(=O)Cc4ccccc4)cc32)[nH]c2c1C(=O)CCC2 [DCB-70197, (Z)-ethyl 3-(4-oxo-2-((2-oxo-5-(phenylmethylsulfonamido)indolin-3-ylidene)methyl)-4,5,6,7-tetrahydro-1H-indol-3-yl)propanoate] | – | 48.7 | – | 39.9 | 21.1
10 | O=C(O)CCc1c(/C=C2\C(=O)Nc3ccc(NS(=O)(=O)Cc4ccccc4)cc32)[nH]c2c1C(=O)CCC2 [DCB-70198, (Z)-3-(4-oxo-2-((2-oxo-5-(phenylmethylsulfonamido)indolin-3-ylidene)methyl)-4,5,6,7-tetrahydro-1H-indol-3-yl)propanoic acid] | 62.8 | 96.1 | 402 | 69.8 | 20.2
11 | CC(=O)c1c(C)[nH]c(/C=C2\C(=O)Nc3ccc(NS(=O)(=O)c4ccccc4)cc32)c1CCC(=O)O [DCB-70200, (Z)-3-(4-acetyl-5-methyl-2-((2-oxo-5-(phenylsulfonamido)indolin-3-ylidene)methyl)-1H-pyrrol-3-yl)propanoic acid] | 60.6 | 93.1 | 870 | 57.3 | 15.2
12 | CCOC(=O)CCc1c(/C=C2\C(=O)Nc3ccc(NS(=O)(=O)c4ccccc4)cc32)[nH]c(C)c1C(C)=O [DCB-70201, (Z)-ethyl 3-(4-acetyl-5-methyl-2-((2-oxo-5-(phenylsulfonamido)indolin-3-ylidene)methyl)-1H-pyrrol-3-yl)propanoate] | – | 48.2 | – | 36.6 | 18.8
13 | CC(=O)c1c(C)[nH]c(/C=C2\C(=O)Nc3ccc(S(=O)(=O)Cc4c(Cl)cccc4Cl)cc32)c1CCC(=O)O [DCB-70202, (Z)-3-(4-acetyl-2-((5-(2,6-dichlorobenzylsulfonyl)-2-oxoindolin-3-ylidene)methyl)-5-methyl-1H-pyrrol-3-yl)propanoic acid] | – | 40.2 | – | 7.3 | 85.2
14 | CC(=O)c1c(C)[nH]c(/C=C2\C(=O)Nc3ccc(S(=O)(=O)Cc4c(Cl)cccc4Cl)cc32)c1CCC(=O)N1CCN(C)CC1 [DCB-70205, (Z)-3-((4-acetyl-5-methyl-3-(3-(4-methylpiperazin-1-yl)-3-oxopropyl)-1H-pyrrol-2-yl)methylene)-5-(2,6-dichlorobenzylsulfonyl)indolin-2-one] | – | 11.3 | – | 2.4 | 97
15 | CC(=O)c1c(C)[nH]c(/C=C2\C(=O)Nc3ccc(S(=O)(=O)N4CCc5ccccc54)cc32)c1CCC(=O)N1CCN(C)CC1 [DCB-70206, (Z)-3-((4-acetyl-5-methyl-3-(3-(4-methylpiperazin-1-yl)-3-oxopropyl)-1H-pyrrol-2-yl)methylene)-5-(indolin-1-ylsulfonyl)indolin-2-one] | – | 37.4 | – | 21.1 | 77.4
16 | CC(=O)c1c(C)[nH]c(/C=C2\C(=O)Nc3ccc(F)cc32)c1CCC(=O)N1CCN(C)CC1 [DCB-70207, (Z)-3-((4-acetyl-5-methyl-3-(3-(4-methylpiperazin-1-yl)-3-oxopropyl)-1H-pyrrol-2-yl)methylene)-5-fluoroindolin-2-one] | – | 10.3 | – | 6.8 | 21.1
17 | CCOC(=O)CCc1c(/C=C2\C(=O)Nc3ccc(S(=O)(=O)Cc4c(Cl)cccc4Cl)cc32)[nH]c2c1C(=O)CCC2 [DCB-70209, (Z)-ethyl 3-(2-((5-(2,6-dichlorobenzylsulfonyl)-2-oxoindolin-3-ylidene)methyl)-4-oxo-4,5,6,7-tetrahydro-1H-indol-3-yl)propanoate] | – | 22.7 | – | 16.3 | 92.1
